In brackets after ≈: the same amount, converted by molar mass. Where two headings read alike, the source gives them in different places.
Legend:
C. difficile strains = details: cited from earlier work
[1] = tested on: Fusobacterium nucleatum HM-992; details: cited from earlier work
E. coli ATCC25922 = assay: MIC against E. coli; type: cell-based; details: Escherichia coli; E. coli ATCC25922; read-out: MIC
[2] = tested on: Lactobacillus gasseri HM-644; details: cited from earlier work
Veillonella sp. HM-49 = details: cited from earlier work
[3] = tested on: Clostridioides difficile infection; details: CDI patients; cited from earlier work
[4] = C. difficile strains of Table 4

CCc1c(Cl)c(O)c(Cl)c(O)c1C(=O)O[C@H]1[C@H](O)[C@H](OC)[C@H](OC/C2=C\C=C\C[C@H](O)/C(C)=C/[C@H](CC)[C@@H](O[C@@H]3OC(C)(C)[C@@H](OC(=O)C(C)C)[C@H](O)[C@@H]3O)/C(C)=C/C(C)=C/C[C@@H]([C@@H](C)O)OC2=O)O[C@@H]1C [FDX, fidaxomicin]
IMIC50 (101 strains) (C. difficile strains; 101 C. difficile strains): 0.06 µg/mL
MIC90 (101 strains) (C. difficile strains; 101 C. difficile strains): 0.25 µg/mL (≈ 0.236 µM)
MIC (C. difficile strains; C. difficile 23828, resistant to FDX): >8 µg/mL
MIC (C. difficile strains; C. difficile 24531, resistant to VAN): 0.01 µg/mL (≈ 0.00945 µM)
MIC (C. difficile strains; C. difficile 26675, resistant to MTZ): 4 µg/mL (≈ 3.78 µM)
MIC (C. difficile strains; C. difficile BAA-1803): 1 µg/mL (≈ 0.945 µM)
MIC (C. difficile strains; C. difficile BAA-1870): 0.25 µg/mL (≈ 0.236 µM)
MIC (C. difficile strains; C. difficile NR49292): 0.5 µg/mL (≈ 0.473 µM)
MIC (C. difficile strains; C. difficile NR49294): 0.01 µg/mL (≈ 0.00945 µM)
MIC (C. difficile strains; C. difficile NR49302): 0.03 µg/mL (≈ 0.0284 µM)
MIC (C. difficile strains; C. difficile NR49305): 0.01 µg/mL (≈ 0.00945 µM)
MIC (C. difficile strains; C. difficile NR49310): ≤0.01 µg/mL
MIC (C. difficile strains; C. difficile NR49318): 0.125 µg/mL (≈ 0.118 µM)
MIC50 (C. difficile strains; [4]): 0.06 µg/mL (≈ 0.0567 µM)
MIC90 (C. difficile strains; [4]): 0.25 µg/mL (≈ 0.236 µM)
MIC (C. difficile strains; strain ATCC43598): 0.01 µg/mL (≈ 0.00945 µM)
MIC (C. difficile strains; strain BAA-1801): 0.125 µg/mL (≈ 0.118 µM)
MIC (C. difficile strains; strain BAA-1803): 1 µg/mL (≈ 0.945 µM)
MIC (C. difficile strains; strain BAA-1804): 0.125 µg/mL (≈ 0.118 µM)
MIC (C. difficile strains; strain BAA-1812): 0.015 µg/mL (≈ 0.0142 µM)
MIC (C. difficile strains; strain BAA-1814): 0.03 µg/mL (≈ 0.0284 µM)
MIC (C. difficile strains; strain BAA-1870): 0.25 µg/mL (≈ 0.236 µM)
MIC (C. difficile strains; strain HM-88): 0.03 µg/mL (≈ 0.0284 µM)
MIC (C. difficile strains; strain HM-89): 0.03 µg/mL (≈ 0.0284 µM)
MIC (C. difficile strains; strain HM-745): 0.125 µg/mL (≈ 0.118 µM)
MIC (C. difficile strains; strain HM-746): ≤0.03 µg/mL
MIC (C. difficile strains; strain HM-747): 0.06 µg/mL (≈ 0.0567 µM)
MIC (C. difficile strains; strain NR49292): 0.5 µg/mL (≈ 0.473 µM)
MIC (C. difficile strains; strain NR49294): 0.01 µg/mL (≈ 0.00945 µM)
MIC (C. difficile strains; strain NR49302): 0.03 µg/mL (≈ 0.0284 µM)
MIC (C. difficile strains; strain NR49305): 0.01 µg/mL (≈ 0.00945 µM)
MIC (C. difficile strains; strain NR49310): ≤0.01 µg/mL
MIC (C. difficile strains; strain NR49318): 0.125 µg/mL (≈ 0.118 µM)
MIC (C. difficile strains; strain NR-13427): 0.03 µg/mL (≈ 0.0284 µM)
MIC (C. difficile strains; strain NR-13428): ≤0.03 µg/mL
MIC (C. difficile strains; strain NR-13429): 0.25 µg/mL (≈ 0.236 µM)
MIC (C. difficile strains; strain NR-13430): ≤0.03 µg/mL
MIC (C. difficile strains; strain NR-13431): 0.125 µg/mL (≈ 0.118 µM)
MIC (C. difficile strains; strain NR-13433): 0.125 µg/mL (≈ 0.118 µM)
MIC (C. difficile strains; strain NR-13434): 0.06 µg/mL (≈ 0.0567 µM)
MIC (C. difficile strains; strain NR-13435): ≤0.03 µg/mL
MIC (C. difficile strains; strain NR-13436): 0.125 µg/mL (≈ 0.118 µM)
MIC (C. difficile strains; strain NR-13437): 0.25 µg/mL (≈ 0.236 µM)
MIC (C. difficile strains; strain NR-13438): 0.06 µg/mL (≈ 0.0567 µM)
MIC (C. difficile strains; strain NR-13553): ≤0.03 µg/mL
MIC (C. difficile strains; strain NR-32882): 0.06 µg/mL (≈ 0.0567 µM)
MIC (C. difficile strains; strain NR-32883): 0.125 µg/mL (≈ 0.118 µM)
MIC (C. difficile strains; strain NR-32884): 0.03 µg/mL (≈ 0.0284 µM)
MIC (C. difficile strains; strain NR-32885): 0.25 µg/mL (≈ 0.236 µM)
MIC (C. difficile strains; strain NR-32886): 0.03 µg/mL (≈ 0.0284 µM)
MIC (C. difficile strains; strain NR-32887): 0.125 µg/mL (≈ 0.118 µM)
MIC (C. difficile strains; strain NR-32888): 0.03 µg/mL (≈ 0.0284 µM)
MIC (C. difficile strains; strain NR-32889): 0.25 µg/mL (≈ 0.236 µM)
MIC (C. difficile strains; strain NR-32890): 0.06 µg/mL (≈ 0.0567 µM)
MIC (C. difficile strains; strain NR-32891): 0.03 µg/mL (≈ 0.0284 µM)
MIC (C. difficile strains; strain NR-32892): 0.03 µg/mL (≈ 0.0284 µM)
MIC (C. difficile strains; strain NR-32895): 0.03 µg/mL (≈ 0.0284 µM)
MIC (C. difficile strains; strain NR-32896): 0.03 µg/mL (≈ 0.0284 µM)
MIC (C. difficile strains; strain NR-32897): 0.03 µg/mL (≈ 0.0284 µM)
MIC (C. difficile strains; strain NR-32900): 0.03 µg/mL (≈ 0.0284 µM)
MIC (C. difficile strains; strain NR-32903): 0.03 µg/mL (≈ 0.0284 µM)
MIC (C. difficile strains; strain NR-32904): 0.03 µg/mL (≈ 0.0284 µM)
MIC (C. difficile strains; strain NR-49277): 0.06 µg/mL (≈ 0.0567 µM)
MIC (C. difficile strains; strain NR-49278): 0.25 µg/mL (≈ 0.236 µM)
MIC (C. difficile strains; strain NR-49279): 0.25 µg/mL (≈ 0.236 µM)
MIC (C. difficile strains; strain NR-49280): 0.125 µg/mL (≈ 0.118 µM)
MIC (C. difficile strains; strain NR-49281): 0.25 µg/mL (≈ 0.236 µM)
MIC (C. difficile strains; strain NR-49282): 0.06 µg/mL (≈ 0.0567 µM)
MIC (C. difficile strains; strain NR-49283): 0.03 µg/mL (≈ 0.0284 µM)
MIC (C. difficile strains; strain NR-49284): 0.06 µg/mL (≈ 0.0567 µM)
MIC (C. difficile strains; strain NR-49285): 0.06 µg/mL (≈ 0.0567 µM)
MIC (C. difficile strains; strain NR-49286): 0.25 µg/mL (≈ 0.236 µM)
MIC (C. difficile strains; strain NR-49287): 0.25 µg/mL (≈ 0.236 µM)
MIC (C. difficile strains; strain NR-49288): 0.25 µg/mL (≈ 0.236 µM)
MIC (C. difficile strains; strain NR-49289): 0.03 µg/mL (≈ 0.0284 µM)
MIC (C. difficile strains; strain NR-49290): 0.06 µg/mL (≈ 0.0567 µM)
MIC (C. difficile strains; strain NR-49291): 0.25 µg/mL (≈ 0.236 µM)
MIC (C. difficile strains; strain NR-49293): ≤0.03 µg/mL
MIC (C. difficile strains; strain NR-49295): ≤0.03 µg/mL
MIC (C. difficile strains; strain NR-49296): ≤0.03 µg/mL
MIC (C. difficile strains; strain NR-49297): 0.0125 µg/mL (≈ 0.0118 µM)
MIC (C. difficile strains; strain NR-49298): 0.125 µg/mL (≈ 0.118 µM)
MIC (C. difficile strains; strain NR-49299): 0.125 µg/mL (≈ 0.118 µM)
MIC (C. difficile strains; strain NR-49300): 0.03 µg/mL (≈ 0.0284 µM)
MIC (C. difficile strains; strain NR-49301): 0.03 µg/mL (≈ 0.0284 µM)
MIC (C. difficile strains; strain NR-49303): 0.03 µg/mL (≈ 0.0284 µM)
MIC (C. difficile strains; strain NR-49304): 0.06 µg/mL (≈ 0.0567 µM)
MIC (C. difficile strains; strain NR-49306): 0.03 µg/mL (≈ 0.0284 µM)
MIC (C. difficile strains; strain NR-49307): 0.03 µg/mL (≈ 0.0284 µM)
MIC (C. difficile strains; strain NR-49308): 0.125 µg/mL (≈ 0.118 µM)
MIC (C. difficile strains; strain NR-49309): 0.03 µg/mL (≈ 0.0284 µM)
MIC (C. difficile strains; strain NR-49311): 0.03 µg/mL (≈ 0.0284 µM)
MIC (C. difficile strains; strain NR-49312): 0.125 µg/mL (≈ 0.118 µM)
MIC (C. difficile strains; strain NR-49313): 0.03 µg/mL (≈ 0.0284 µM)
MIC (C. difficile strains; strain NR-49314): 0.25 µg/mL (≈ 0.236 µM)
MIC (C. difficile strains; strain NR-49315): 0.06 µg/mL (≈ 0.0567 µM)
MIC (C. difficile strains; strain NR-49316): 0.125 µg/mL (≈ 0.118 µM)
MIC (C. difficile strains; strain NR-49317): 0.06 µg/mL (≈ 0.0567 µM)
MIC (C. difficile strains; strain NR-49319): 0.125 µg/mL (≈ 0.118 µM)
MIC (C. difficile strains; strain NR-49320): 0.125 µg/mL (≈ 0.118 µM)
MIC (C. difficile strains; strain NR-49321): 0.125 µg/mL (≈ 0.118 µM)
MIC (C. difficile strains; strain NR-49323): ≤0.03 µg/mL
MIC (C. difficile strains; strain NR-49324): 0.06 µg/mL (≈ 0.0567 µM)
MIC (C. difficile strains; strain NR-49325): 0.03 µg/mL (≈ 0.0284 µM)
MIC (C. difficile strains; strain NR-49326): 0.03 µg/mL (≈ 0.0284 µM)
MIC (C. difficile strains; strain NR-49327): 0.03 µg/mL (≈ 0.0284 µM)
MIC (C. difficile strains; strain NR-49328): 0.03 µg/mL (≈ 0.0284 µM)
MIC (C. difficile strains; strain NR-49329): 0.03 µg/mL (≈ 0.0284 µM)
MIC (C. difficile strains; strain RMA23691): 4 µg/mL (≈ 3.78 µM)
MIC (C. difficile strains; strain RMA23828): >8 µg/mL
MIC (C. difficile strains; strain RMA24531): 0.01 µg/mL (≈ 0.00945 µM)
MIC (C. difficile strains; strain RMA24923): 0.06 µg/mL (≈ 0.0567 µM)
MIC (C. difficile strains; strain RMA26675): 4 µg/mL (≈ 3.78 µM)
MIC (C. difficile strains; strain RMA27081): >8 µg/mL
MIC (C. difficile strains; strain RMA27173): 0.01 µg/mL (≈ 0.00945 µM)
MIC [1]: <0.06 µg/mL
MIC (E. coli ATCC25922): > 128 µg/mL
MIC [2]: 2 µg/mL (≈ 1.89 µM)
MIC (Veillonella sp. HM-49): 8 µg/mL (≈ 7.56 µM)
recurrence of infection [3]: 15%

Source: patent publication US20260125371A1, “METHOD FOR INHIBITING CLOSTRIDIOIDES DIFFICILE SPORE GERMINATION” (UNIVERSITY OF NOTRE DAME DU LAC, priority 2022, published 2026)
